Legend:
Settings in all cases: incubation time: 72 h
CAL-120 [1] = experiment: normalised viability (% of control), CellTiter-Blue; higher = more viable cells (100 = DMSO, 0 = benzethonium chloride kill control)
Procedure: (§1)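 DSRT, CellTiter-Blue viability, 72 h incubation. Signal is normalised to DMSO and benzethonium chloride controls. Value is the normalised response at dose 1.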

CAL-148 [2] = experiment: as above
Procedure: as §1

MDA-MB-231 [3] = experiment: as above
Procedure: as §1

CAL-51 [4] = experiment: as above
Procedure: as §1

SK-BR-3 [5] = experiment: as above
Procedure: as §1

MFM-223 [6] = experiment: as above
Procedure: as §1

MDA-MB-468 [7] = experiment: as above
Procedure: as §1

MDA-MB-436 [8] = experiment: as above
Procedure: as §1

HCC1599 [9] = experiment: as above
Procedure: as §1

DU-4475 [10] = experiment: as above
Procedure: as §1

Hs578T [11] = experiment: as above
Procedure: as §1

BT-549 [12] = experiment: as above
Procedure: as §1

HDQ-P1 [13] = experiment: as above
Procedure: as §1

CAL-85-1 [14] = experiment: as above
Procedure: as §1

MDA-MB-453 [15] = experiment: as above
Procedure: as §1

HCC1937 [16] = experiment: as above
Procedure: as §1

HCC1143 [17] = experiment: as above
Procedure: as §1

BT-474 [18] = experiment: as above
Procedure: as §1

CAL-120 [19] = experiment: normalised response (% of control), CellTiter-Glo; higher = more viable cells (100 = DMSO, 0 = benzethonium chloride kill control)
Summary of the method: (§2)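 Every value is a normalised signal taken at one concentration of a dilution series. Compound was placed in 384-well plates at 5 concentrations in 10-fold steps over a compound-specific 10,000-fold range, and 20 µl of breast cancer cell suspension was seeded onto it. After 72 h, CellTox Green fluorescence (485/520 nm) was measured first and CellTiter-Glo luminescence second, following 10 min at room temperature. Each plate was scaled to 0.1 % DMSO (100) and a positive kill control (0).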

CAL-148 [20] = experiment: as above
Summary of the method: as §2

MDA-MB-231 [21] = experiment: as above
Summary of the method: as §2

CAL-51 [22] = experiment: as above
Summary of the method: as §2

SK-BR-3 [23] = experiment: as above
Summary of the method: as §2

MFM-223 [24] = experiment: as above
Summary of the method: as §2

MCF-10A = experiment: as above
Summary of the method: as §2

MDA-MB-468 [25] = experiment: as above
Summary of the method: as §2

MDA-MB-436 [26] = experiment: as above
Summary of the method: as §2

HCC1599 [27] = experiment: as above
Summary of the method: as §2

DU-4475 [28] = experiment: as above
Summary of the method: as §2

Hs578T [29] = experiment: as above
Summary of the method: as §2

BT-549 [30] = experiment: as above
Summary of the method: as §2

HDQ-P1 [31] = experiment: as above
Summary of the method: as §2

CAL-85-1 [32] = experiment: as above
Summary of the method: as §2

MDA-MB-453 [33] = experiment: as above
Summary of the method: as §2

HCC1937 [34] = experiment: as above
Summary of the method: as §2

HCC1143 [35] = experiment: as above
Summary of the method: as §2

BT-474 [36] = experiment: as above
Summary of the method: as §2

Compound	normalised viability (CAL-120 [1]) [%]	normalised viability (CAL-148 [2]) [%]	normalised viability (MDA-MB-231 [3]) [%]	normalised viability (CAL-51 [4]) [%]	normalised viability (SK-BR-3 [5]) [%]	normalised viability (MFM-223 [6]) [%]	normalised viability (MDA-MB-468 [7]) [%]	normalised viability (MDA-MB-436 [8]) [%]	normalised viability (HCC1599 [9]) [%]	normalised viability (DU-4475 [10]) [%]	normalised viability (Hs578T [11]) [%]	normalised viability (BT-549 [12]) [%]	normalised viability (HDQ-P1 [13]) [%]	normalised viability (CAL-85-1 [14]) [%]	normalised viability (MDA-MB-453 [15]) [%]	normalised viability (HCC1937 [16]) [%]	normalised viability (HCC1143 [17]) [%]	normalised viability (BT-474 [18]) [%]	normalised response (CAL-120 [19]) [%]	normalised response (CAL-148 [20]) [%]	normalised response (MDA-MB-231 [21]) [%]	normalised response (CAL-51 [22]) [%]	normalised response (SK-BR-3 [23]) [%]	normalised response (MFM-223 [24]) [%]	normalised response (MCF-10A) [%]	normalised response (MDA-MB-468 [25]) [%]	normalised response (MDA-MB-436 [26]) [%]	normalised response (HCC1599 [27]) [%]	normalised response (DU-4475 [28]) [%]	normalised response (Hs578T [29]) [%]	normalised response (BT-549 [30]) [%]	normalised response (HDQ-P1 [31]) [%]	normalised response (CAL-85-1 [32]) [%]	normalised response (MDA-MB-453 [33]) [%]	normalised response (HCC1937 [34]) [%]	normalised response (HCC1143 [35]) [%]	normalised response (BT-474 [36]) [%]
Cn1c(CCCC(=O)O)nc2cc(N(CCCl)CCCl)ccc21 [Bendamustine] (1 nM)	90.5	108	116	102	93.2	94.8	110	109	107	111	104	106	65.9	90.2	109	103	112	108	99.5	116	106	75.8	117	106	103	108	97.5	99.5	108	99.8	101	102	105	127	103	104	107
Oc1nc(-c2ccc(C(F)(F)F)cc2)nc2c1CSCC2 [XAV-939] (1 nM)	97.7	101	100	102	99.3	107	104	119	141	119	89.6	99.4	97.3	93.8	106	84	97.6	84.9	97.1	92.4	101	97.6	99.2	102	101	99.1	107	95.8	104	97.1	95.8	98.9	104	97.6	97.2	100	99.7
CNCc1ccc(-c2[nH]c3cc(F)cc4c3c2CCNC4=O)cc1 [Rucaparib] (1 nM)	79.5	96.4	105	113	100	91.6	110	104	122	111	97.4	95.3	68.1	88.6	95.2	108	103	109	96.3	98.2	99.1	117	82.4	95.9	84.6	96.8	98.5	98.4	99.4	102	96.9	97.2	100	98.2	97.8	94.1	92.6
CN(C)/N=N/c1[nH]cnc1C(N)=O [Dacarbazine] (1 nM)	89.3	99.7	94.8	87.7	106	101	103	114	81.7	104	106	108	105	90.2	96.5	108	92.2	99.6	94.7	100	105	99.1	99.9	103	100	102	122	96.7	104	107	101	96	96.7	116	101	104	101
N[C@@H](CSC(c1ccccc1)(c1ccccc1)c1ccccc1)C(=O)O [S-trityl-L-cysteine] (4 nM)	115	112	104	91.3	88.2	105	101	109	108	116	106	85.8	96.6	122	88.6	89	143	91.1	106	103	100	81	99.6	96.9	97.6	101	85.6	87.5	95.7	95.5	96.5	103	101	107	92	97	105
N.N.[Cl][Pt][Cl] [Cisplatin] (1 nM)	85.1	118	103	113	100	93.7	98.2	105	96.4	107	121	92	106	92.1	111	90.5	98.2	109	101	90.5	100	74.7	98.7	99.4	95.4	94.9	96.7	102	94.2	101	98.7	101	94.9	99.3	101	90.8	101
CCC1=C[C@@H]2CN(C1)Cc1c([nH]c3ccccc13)[C@@](C(=O)OC)(c1cc3c(cc1OC)N(C)[C@H]1[C@@](O)(C(=O)OC)[C@H](OC(C)=O)[C@]4(CC)C=CCN5CC[C@]31[C@@H]54)C2 [Vinorelbine] (1 nM)	94.2	106	93.3	98.1	95.2	95.6	99.3	101	90.2	102	113	109	109	98.1	86.9	90.8	96.5	104	106	108	107	102	95.2	96.5	108	101	96.6	107	98.9	97.2	106	98.1	101	102	95	101	97.4
Cc1ccc(C(=O)Nc2ccc(CN3CCN(C)CC3)c(C(F)(F)F)c2)cc1C#Cc1cnc2cccnn12 [Ponatinib] (0.1 nM)	97.1	98.5	107	87.5	91.9	103	104	103	104	97.2	111	98.3	109	101	92.5	87.3	103	90.1	103	105	99.3	95.4	101	98	102	105	105	99.4	101	102	109	104	103	101	95.3	95.9	102

From the supplement of paper PMC4862054
